# Read-outs that look alike come from different tables or passages of the source.
# How the values were obtained:
# [1] = biological target: human JAK1 (a.a. 837-1142) (Homo sapiens, UniProt P23458); assay: In vitro JAK kinase assay (HTRF, phosphorylation of biotinylated peptide), JAK1; assay type: biochemical; conditions: 1 mM ATP
# Method: Compounds herein were tested for inhibitory activity of JAK targets according to the following in vitro assay described in Park et al., Analytical Biochemistry 1999, 269, 94-104. The catalytic domains of human JAK1 (a.a. 837-1142) and JAK2 (a.a. 828-1132) with an N-terminal His tag were expressed using baculovirus in insect cells and purified. The catalytic activity of JAK1 and JAK2 was assayed by measuring the phosphorylation of a biotinylated peptide. The phosphorylated peptide was detected by homogenous time resolved fluorescence (HTRF). […] Reactions were carried out at room temperature for 1 hour and then stopped with 20 μL 45 mM EDTA, 300 nM SA-APC, 6 nM Eu-Py20 in assay buffer (Perkin Elmer, Boston, Mass.). Binding to the Europium labeled antibody took place for 40 minutes and HTRF signal was measured on a Fusion plate reader (Perkin Elmer, Boston, Mass.). […] Data is indicated as ranges, wherein “+” is less than 10 nM; “++” is 10 nM to 25 nM; “+++” is greater than 25 nM to 100 nM; and “++++” is greater than 100 nM. Greater than 25 nM to 100 nM specifies a range with a lower endpoint “at greater than 25 nM” and an upper endpoint at 100 nM.
# [2] = biological target: T1, JAK2 (a.a. 828-1132) (Homo sapiens, UniProt O60674); assay: In vitro JAK kinase assay (HTRF, phosphorylation of biotinylated peptide), JAK2; assay type: biochemical; conditions: 1 mM ATP
# T1 construct: JAK2 (a.a. 828-1132); His tag (N)
# Method: Compounds herein were tested for inhibitory activity of JAK targets according to the following in vitro assay described in Park et al., Analytical Biochemistry 1999, 269, 94-104. The catalytic domains of human JAK1 (a.a. 837-1142) and JAK2 (a.a. 828-1132) with an N-terminal His tag were expressed using baculovirus in insect cells and purified. The catalytic activity of JAK1 and JAK2 was assayed by measuring the phosphorylation of a biotinylated peptide. The phosphorylated peptide was detected by homogenous time resolved fluorescence (HTRF). […] Reactions were carried out at room temperature for 1 hour and then stopped with 20 μL 45 mM EDTA, 300 nM SA-APC, 6 nM Eu-Py20 in assay buffer (Perkin Elmer, Boston, Mass.). Binding to the Europium labeled antibody took place for 40 minutes and HTRF signal was measured on a Fusion plate reader (Perkin Elmer, Boston, Mass.). See Tables A-F for data related to compounds of the Examples (at 1 mM). Data is indicated as ranges, wherein “+” is less than 10 nM; “++” is 10 nM to 25 nM; “+++” is greater than 25 nM to 100 nM; and “++++” is greater than 100 nM. Greater than 25 nM to 100 nM specifies a range with a lower endpoint “at greater than 25 nM” and an upper endpoint at 100 nM.
# T1 sequence (O60674 828-1132): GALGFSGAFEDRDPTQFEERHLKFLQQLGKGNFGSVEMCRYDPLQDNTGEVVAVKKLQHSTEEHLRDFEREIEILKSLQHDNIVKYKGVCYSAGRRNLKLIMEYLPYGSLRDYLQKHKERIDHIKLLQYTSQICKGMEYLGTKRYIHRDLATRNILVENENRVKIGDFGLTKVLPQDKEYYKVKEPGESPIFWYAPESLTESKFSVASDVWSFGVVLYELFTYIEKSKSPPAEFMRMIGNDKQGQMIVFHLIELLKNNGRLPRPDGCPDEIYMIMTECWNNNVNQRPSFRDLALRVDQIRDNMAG
# human JAK1 (a.a. 837-1142), sequence (P23458 849-1154): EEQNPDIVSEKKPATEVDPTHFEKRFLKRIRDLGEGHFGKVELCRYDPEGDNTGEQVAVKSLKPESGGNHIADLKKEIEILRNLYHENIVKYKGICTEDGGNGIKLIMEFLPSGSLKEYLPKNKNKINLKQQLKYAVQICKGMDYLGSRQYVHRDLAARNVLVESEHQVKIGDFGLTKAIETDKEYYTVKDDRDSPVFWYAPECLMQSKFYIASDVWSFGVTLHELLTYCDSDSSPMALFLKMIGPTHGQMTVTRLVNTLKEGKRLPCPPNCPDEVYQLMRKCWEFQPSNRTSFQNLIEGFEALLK
Compound,IC50 ([1]; Table F) [nM],IC50 ([2]; Table F) [nM],also measured
"N#CC[C@]1(n2cc(-c3ncnc4[nH]ccc34)cn2)C[C@@H](N2CCN(Cc3c(F)ccc(F)c3Cl)CC2)C1 [Example 16a, {cis-3-[4-(2-chloro-3,6-difluorobenzyl)piperazin-1-yl]-1-[4-(7H-pyrrolo[2,3-d]pyrimidin-4-yl)-1H-pyrazol-1-yl]cyclobutyl}acetonitrile]",–,–,"IC50 ([1]; Table A, read-out: JAK1 IC50): < 10 nM; IC50 ([2]; Table A, read-out: JAK2 IC50): 10 to 25 nM"
"CN(C)Cc1cc(OC2CCN([C@H]3C[C@](CC#N)(n4cc(-c5ncnc6[nH]ccc56)cn4)C3)CC2)nc(C(F)(F)F)n1 [Example 142, {trans-3-(4-{[6-[(dimethylamino)methyl]-2-(trifluoromethyl)pyrimidin-4-yl]oxy}piperidin-1-yl)-1-[4-(7H-pyrrolo[2,3-d]pyrimidin-4-yl)-1H-pyrazol-1-yl]cyclobutyl}acetonitrile]",10 to 25,> 100,–
"N#CC[C@]1(n2cc(-c3ncnc4[nH]ccc34)cn2)C[C@H](N2CCC(Oc3cc(CNCCO)cc(C(F)(F)F)n3)CC2)C1 [Example 154, {trans-3-(4-{[4-{[(2-hydroxyethyl)amino]methyl}-6-(trifluoromethyl)pyridin-2-yl]oxy}piperidin-1-yl)-1-[4-(7H-pyrrolo[2,3-d]pyrimidin-4-yl)-1H-pyrazol-1-yl]cyclobutyl}acetonitrile]",< 10,25 to 100,–
"N#CC[C@]1(n2cc(-c3ncnc4[nH]ccc34)cn2)C[C@H](N2CCC(Oc3cc(CN4CCCC4)nc(C(F)(F)F)n3)CC2)C1 [Example 148, {trans-3-(4-{[6-(pyrrolidin-1-ylmethyl)-2-(trifluoromethyl)pyrimidin-4-yl]oxy}piperidin-1-yl)-1-[4-(7H-pyrrolo[2,3-d]pyrimidin-4-yl)-1H-pyrazol-1-yl]cyclobutyl}acetonitrile]",10 to 25,> 100,–
"Cc1cc(OC2CCN([C@H]3C[C@](CC#N)(n4cc(-c5ncnc6[nH]ccc56)cn4)C3)CC2)nc(C(F)(F)F)n1 [Example 145, {trans-3-(4-{[6-methyl-2-(trifluoromethyl)pyrimidin-4-yl]oxy}piperidin-1-yl)-1-[4-(7H-pyrrolo[2,3-d]pyrimidin-4-yl)-1H-pyrazol-1-yl]cyclobutyl}acetonitrile]",10 to 25,> 100,–
"C[C@@H](NC(=O)N1CCN([C@H]2C[C@](CC#N)(n3cc(-c4ncnc5[nH]ccc45)cn3)C2)CC1)C1CC1 [Example 97, 4-{trans-3-(cyanomethyl)-3-[4-(7H-pyrrolo[2,3-d]pyrimidin-4-yl)-1H-pyrazol-1-yl]cyclobutyl}-N-[(1R)-1-cyclopropylethyl]piperazine-1-carboxamide]",< 10,25 to 100,–
"N#CC[C@]1(n2cc(-c3ncnc4[nH]ccc34)cn2)C[C@@H](N2CCN(Cc3cncc(F)c3)CC2)C1 [Example 23a, {cis-3-{4-[(5-fluoropyridin-3-yl)methyl]piperazin-1-yl}-1-[4-(7H-pyrrolo[2,3-d]pyrimidin-4-yl)-1H-pyrazol-1-yl]cyclobutyl}acetonitrile]",–,–,"IC50 ([1]; Table A, read-out: JAK1 IC50): 10 to 25 nM; IC50 ([2]; Table A, read-out: JAK2 IC50): > 100 nM"
"N#CC[C@]1(n2cc(-c3ncnc4[nH]ccc34)cn2)C[C@H](N2CCN(C(=O)N[C@H]3CCC[C@H]3O)CC2)C1 (single isomer, unassigned) [Example 89]",< 10,25 to 100,–
"Cc1cc(OC2CCN([C@H]3C[C@@](CC#N)(n4cc(-c5ncnc6[nH]ccc56)cn4)C3)CC2)nc(C(F)(F)F)c1 [Example 151, {trans-3-(4-{[4-methyl-6-(trifluoromethyl)pyridin-2-yl]oxy}piperidin-1-yl)-1-[4-(7H-pyrrolo[2,3-d]pyrimidin-4-yl)-1H-pyrazol-1-yl]cyclobutyl}acetonitrile]",< 10,25 to 100,–
"C[C@H](NC(=O)N1CCN([C@H]2C[C@](CC#N)(n3cc(-c4ncnc5[nH]ccc45)cn3)C2)CC1)C(F)(F)F [Example 114, 4-{trans-3-(cyanomethyl)-3-[4-(7H-pyrrolo[2,3-d]pyrimidin-4-yl)-1H-pyrazol-1-yl]cyclobutyl}-N-[(1S)-2,2,2-trifluoro-1-methylethyl]piperazine-1-carboxamide]",< 10,> 100,–
"C[C@H]1CCCN1Cc1cc(F)cc(OC2CCN(C3CC(CC#N)(n4cc(-c5ncnc6[nH]ccc56)cn4)C3)CC2)c1 (single isomer, unassigned; isomer 2) [Example 41, isomer 2]",–,–,"IC50 ([1]; read-out: JAK1 IC50 (nM) at 1 mM, Table E): < 10 nM; IC50 ([2]; Table E, listed as 41, isomer 2, read-out: JAK2 IC50 (nM) +): < 10 nM"
"CCS(=O)(=O)N1CCN([C@H]2C[C@](CC#N)(n3cc(-c4ncnc5[nH]ccc45)cn3)C2)CC1 [Example 35, {trans-3-[4-(ethylsulfonyl)piperazin-1-yl]-1-[4-(7H-pyrrolo[2,3-d]pyrimidin-4-yl)-1H-pyrazol-1-yl]cyclobutyl}acetonitrile]",–,–,"IC50 ([2]; Table B, read-out: JAK2 IC50): < 10 nM"

# Now from value to compound, other results behind:
IC50 ([1]; Table F) [nM],IC50 ([2]; Table F) [nM],Compound,also measured
< 10,25 to 100,"CC(C)[C@H](C)NC(=O)N1CCN([C@H]2C[C@](CC#N)(n3cc(-c4ncnc5[nH]ccc45)cn3)C2)CC1 [Example 94, 4-{trans-3-(cyanomethyl)-3-[4-(7H-pyrrolo[2,3-d]pyrimidin-4-yl)-1H-pyrazol-1-yl]cyclobutyl}-N-[(1S)-1,2-dimethylpropyl]piperazine-1-carboxamide]",–
< 10,25 to 100,"CC[C@H](C)NC(=O)N1CCN([C@H]2C[C@](CC#N)(n3cc(-c4ncnc5[nH]ccc45)cn3)C2)CC1 [Example 103, 4-{trans-3-(cyanomethyl)-3-[4-(7H-pyrrolo[2,3-d]pyrimidin-4-yl)-1H-pyrazol-1-yl]cyclobutyl}-N-[(1S)-1-methylpropyl]piperazine-1-carboxamide]",–
< 10,25 to 100,"CN(C)Cc1cc(C(=O)N2CCN([C@H]3C[C@](CC#N)(n4cc(-c5ncnc6[nH]ccc56)cn4)C3)CC2)nc(C(F)(F)F)c1 [Example 65, {trans-3-(4-{[4-[(dimethylamino)methyl]-6-(trifluoromethyl)pyridin-2-yl]carbonyl}piperazin-1-yl)-1-[4-(7H-pyrrolo[2,3-d]pyrimidin-4-yl)-1H-pyrazol-1-yl]cyclobutyl}acetonitrile]",–
< 10,25 to 100,"N#CC[C@]1(n2cc(-c3ncnc4[nH]ccc34)cn2)C[C@H](N2CCN(C(=O)c3cc(CN4CCC4)nc(C(F)(F)F)n3)CC2)C1 [Example 49, {trans-3-(4-{[6-(azetidin-1-ylmethyl)-2-(trifluoromethyl)pyrimidin-4-yl]carbonyl}piperazin-1-yl)-1-[4-(7H-pyrrolo[2,3-d]pyrimidin-4-yl)-1H-pyrazol-1-yl]cyclobutyl}acetonitrile]",–
< 10,25 to 100,"CCNC(=O)N1CCN([C@H]2C[C@](CC#N)(n3cc(-c4ncnc5[nH]ccc45)cn3)C2)CC1 [Example 81, 4-{trans-3-(cyanomethyl)-3-[4-(7H-pyrrolo[2,3-d]pyrimidin-4-yl)-1H-pyrazol-1-yl]cyclobutyl}-N-ethylpiperazine-1-carboxamide]",–
< 10,25 to 100,"CN(C(=O)N1CCN([C@H]2C[C@](CC#N)(n3cc(-c4ncnc5[nH]ccc45)cn3)C2)CC1)C1CC1 [Example 83, 4-{trans-3-(cyanomethyl)-3-[4-(7H-pyrrolo[2,3-d]pyrimidin-4-yl)-1H-pyrazol-1-yl]cyclobutyl}-N-cyclopropyl-N-methylpiperazine-1-carboxamide]",–
